Measured values reported in patent publication US9290485B2, “N-((6-amino-pyridin-3-yl)methyl)-heteroaryl-carboxamides” (NOVARTIS AG, priority 2010, dated 2016).

Molecular target: human plasma kallikrein (Homo sapiens (Human), UniProt P03952)
Details: human plasma kallikrein 25 pM, substrate 0.5 uM, 1 hour pre-incubation at room temperature, read at t=60 min
Method: All other chemicals were of analytical grade.
A stock solution of 0.17 mg/ml deinonized water was stored at −80° C. Enzymatic reactions were conducted in ‘assay buffer’, comprising 50 mM Hepes/NaOH at pH 7.8, 150 mM NaCl, 1 mM EDTA and 0.05% (w/v) CHAPS.
Both, enzyme and substrate were diluted in assay buffer.
All protein and peptide containing solutions were handled in siliconized tubes (Life Systems Design, Merenschwand, Switzerland). […] Plate measurements were conducted by the means of a Safire2 reader (TECAN, Maennedorf, Switzerland). The Safire2 is a monochomator-based instrument and wavelengths of 485 nm and 535 nm were taken for fluorescence excitation and emission acquisition, respectively. The bandwidths were set to 10 nm in both the excitation and the emission path. The fluorescence in each well was excited by three flashes per measurement.
The test compound was dissolved in 90% (v/v) DMSO/water. For the assays, 250 nL of the 90% (v/v) DMSO/water solution or compound solution were added per well, followed by the addition of 12.5 μl protease solution (protease in assay buffer). […] After 1 hour of pre-incubation at room temperature, the reactions were started by the addition of 12.5 μl substrate solution (in assay buffer, final assay concentration was 0.5 uM). After the addition of the substrate solution, the final DMSO concentration in the assay was 0.9% (v/v). […] The IC50 value was calculated from the plot of percentage of inhibition vs. inhibitor concentration by a logistics fit according to the following equation: y=A2+(A1−A2)/(1+(x/IC50)^p) where y is the %-inhibition at the inhibitor concentration, x. A1 is the lowest inhibition value, i.e. 0%, and A2 the maximum inhibition value, i.e. 100%. The exponent, p, is the Hill coefficient. The curve fitting was conducted with the non-linear regression routine of the analysis software Origin 7.55R6 (OriginLab Corporation).

Sequence of human plasma kallikrein (P03952 whole entry, looked up): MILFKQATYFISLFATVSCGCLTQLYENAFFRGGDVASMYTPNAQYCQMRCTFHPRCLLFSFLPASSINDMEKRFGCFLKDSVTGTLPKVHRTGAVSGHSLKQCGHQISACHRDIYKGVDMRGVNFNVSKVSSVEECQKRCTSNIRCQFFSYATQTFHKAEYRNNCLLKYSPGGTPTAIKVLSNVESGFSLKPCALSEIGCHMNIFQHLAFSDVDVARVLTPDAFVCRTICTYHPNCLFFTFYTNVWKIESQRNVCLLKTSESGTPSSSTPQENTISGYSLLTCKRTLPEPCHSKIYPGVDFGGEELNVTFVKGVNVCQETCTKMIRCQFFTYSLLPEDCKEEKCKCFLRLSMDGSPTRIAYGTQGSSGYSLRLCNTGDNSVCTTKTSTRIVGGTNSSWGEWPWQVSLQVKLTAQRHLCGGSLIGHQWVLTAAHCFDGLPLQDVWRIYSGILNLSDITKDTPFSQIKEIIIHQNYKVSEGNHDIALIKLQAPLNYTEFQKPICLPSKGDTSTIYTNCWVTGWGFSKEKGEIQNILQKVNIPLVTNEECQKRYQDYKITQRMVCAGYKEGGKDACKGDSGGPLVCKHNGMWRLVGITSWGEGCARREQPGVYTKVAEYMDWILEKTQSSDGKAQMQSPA
Sequence of human plasma kallikrein (P03952 whole entry partner, looked up): as the sequence (P03952 whole entry, looked up) above

| SMILES | IC50 |
| --- | --- |
| Cc1cc(N)nc(C)c1CNC(=O)c1cnn(Cc2ccc(Cn3cccn3)cc2)c1 [Example 145, 1-(4-((1H-pyrazol-1-yl)methyl)benzyl)-N-((6-amino-2,4-dimethylpyridin-3-yl)methyl)-1H-pyrazole-4-carboxamide] | 0.2 nM |
| Cc1cc(N)nc(C)c1CNC(=O)c1cnn(Cc2csc(C(C)(C)C)n2)c1 [Example 28, N-((6-amino-2,4-dimethylpyridin-3-yl)methyl)-1-((2-tert-butylthiazol-4-yl)methyl)-1H-pyrazole-4-carboxamide] | 343 nM |
| Cc1cc(N)nc(C)c1CNC(=O)c1nc(Cc2ccc(Oc3ccccc3)cc2)n[nH]1 [Example 125, N-((6-amino-2,4-dimethylpyridin-3-yl)methyl)-3-(4-phenoxybenzyl)-1H-1,2,4-triazole-5-carboxamide] | 36 nM |
| Cc1cc(N)nc(C)c1CNC(=O)c1cnn(Cc2ncoc2-c2ccccc2)c1 [Example 35, N-((6-amino-2,4-dimethylpyridin-3-yl)methyl)-1-((5-phenyloxazol-4-yl)methyl)-1H-pyrazole-4-carboxamide] | 3900 nM |
| Cc1cc(N)nc(C)c1CNC(=O)c1ncn(Cc2ccc(-c3ccccc3)cc2)n1 [Example 61, N-((6-amino-2,4-dimethylpyridin-3-yl)methyl)-1-(biphenyl-4-ylmethyl)-1H-1,2,4-triazole-3-carboxamide] | 46 nM |
| COc1ccc(S(=O)(=O)n2ccc(C(=O)NCc3c(C)cc(N)nc3C)c2)cc1 [Example 12, 1-(4-Methoxy-benzenesulfonyl)-1H-pyrrole-3-carboxylic acid (6-amino-2,4-dimethyl-pyridin-3-ylmethyl)-amide] | 1370 nM |
| Cc1cc(N)nc(C)c1CNC(=O)c1coc(Cc2ccccc2)n1 [Example 58, N-((6-amino-2,4-dimethylpyridin-3-yl)methyl)-2-benzyloxazole-4-carboxamide] | 3800 nM |
| Cc1cc(N)nc(C)c1CNC(=O)c1cnn(Cc2ccc(COc3ccccc3)cc2)c1 [Example 89, N-((6-amino-2,4-dimethylpyridin-3-yl)methyl)-1-(4-(Phenoxymethyl)benzyl)-1H-pyrazole-4-carboxamide] | 6 nM |
| Cc1cc(N)nc(C)c1CNC(=O)c1ccn(Cc2ccccc2)c1C [Example 179, N-((6-Amino-2,4-dimethylpyridin-3-yl)methyl)-1-benzyl-2-methyl-1H-pyrrole-3-carboxamide] | 85800 nM |
| Cc1cc(N)nc(C)c1CNC(=O)c1cnn(Cc2ccc(CN3CCCC3=O)cc2)c1 [Example 143, N-((6-amino-2,4-dimethylpyridin-3-yl)methyl)-1-(4-((2-oxopyrrolidin-1-yl)methyl)benzyl)-1H-pyrazole-4-carboxamide] | 2.6 nM |
| Cc1cc(N)nc(C)c1CNC(=O)c1cnn(S(=O)(=O)c2cccc(C#N)c2)c1 [Example 37, N-((6-amino-2,4-dimethylpyridin-3-yl)methyl)-1-(3-cyanophenylsulfonyl)-1H-pyrazole-4-carboxamide] | 5300 nM |
| Cc1cc(C)n(-c2ccc(S(=O)(=O)n3ccc(C(=O)NCc4c(C)cc(N)nc4C)c3)cc2)n1 [Example 133, N-((6-amino-2,4-dimethylpyridin-3-yl)methyl)-1-(4-(3,5-dimethyl-1H-pyrazol-1-yl)phenylsulfonyl)-1H-pyrrole-3-carboxamide] | 196 nM |
| Cc1cc(N)nc(C)c1CNC(=O)c1cn(Cc2c(F)cccc2F)nn1 [Example 53, N-((6-amino-2,4-dimethylpyridin-3-yl)methyl)-1-(2,6-difluorobenzyl)-1H-1,2,3-triazole-4-carboxamide] | 3600 nM |
| Cc1nc(N)cc(OC(F)F)c1CNC(=O)c1cnn(Cc2ccccc2)c1 [Example 180, N-((6-Amino-4-(difluoromethoxy)-2-methylpyridin-3-yl)methyl)-1-benzyl-1H-pyrazole-4-carboxamide] | > 100000 nM |
| Cc1cc(N)nc(C)c1CNC(=O)c1ncn(Cc2ccccc2)n1 [Example 56, N-((6-amino-2,4-dimethylpyridin-3-yl)methyl)-1-benzyl-1H-1,2,4-triazole-3-carboxamide] | 4400 nM |
| Cc1cc(N)nc(C)c1CNC(=O)c1cnn(Cc2cccc(S(=O)(=O)N3CCOCC3)c2)c1 [Example 116, N-((6-amino-2,4-dimethylpyridin-3-yl)methyl)-1-(3-(morpholinosulfonyl)benzyl)-1H-pyrazole-4-carboxamide] | 197 nM |
| Cc1cc(N)nc(C)c1CNC(=O)c1cn(Cc2ccc(-n3cccn3)cc2)nn1 [Example 41, 1-(4-(1H-pyrazol-1-yl)benzyl)-N-((6-amino-2,4-dimethylpyridin-3-yl)methyl]-1H-1,2,3-triazole-4-carboxamide] | 108 nM |
| Cc1cc(N)nc(C)c1CNC(=O)c1cnn(Cc2cccc(C(N)=O)c2)c1 [Example 102, N-((6-amino-2,4-dimethylpyridin-3-yl)methyl)-1-(3-carbamoylbenzyl)-1H-pyrazole-4-carboxamide] | 4000 nM |
| Cc1cc(N)nc(C)c1CNC(=O)c1cnn(Cc2ccc3c(c2)OCO3)c1 [Example 103, N-((6-amino-2,4-dimethylpyridin-3-yl)methyl)-1-(benzo[d][1,3]dioxol-5-ylmethyl)-1H-pyrazole-4-carboxamide] | 299 nM |

| SMILES | IC50 |
| --- | --- |
| Cc1noc(-c2ccc(Cn3cc(C(=O)NCc4c(C)cc(N)nc4C)cn3)cc2)n1 [Example 91, N-((6-amino-2,4-dimethylpyridin-3-yl)methyl)-1-(4-(3-methyl-1,2,4-oxadiazol-5-yl)benzyl)-1H-pyrazole-4-carboxamide] | 133 nM |
| Cc1cc(C)c2cc(Cn3cc(C(=O)NCc4ccc(N)nc4C)cn3)c(C)nc2c1 [Example 161, N-((6-amino-2-methylpyridin-3-yl)methyl)-1-((2,5,7-trimethylquinolin-3-yl)methyl)-1H-pyrazole-4-carboxamide] | 4 nM |
| Cc1cc(C)n(Cc2ccc(Cn3cc(C(=O)NCc4c(C)cc(N)nc4C)nn3)cc2)n1 [Example 148, N-((6-amino-2,4-dimethylpyridin-3-yl)methyl)-1-(4-((3,5-dimethyl-1H-pyrazol-1-yl)methyl)benzyl)-1H-1,2,3-triazole-4-carboxamide] | 0.03 nM |
| Cc1cc(N)nc(C)c1CNC(=O)c1cc(S(=O)(=O)N2CCOCC2)c[nH]1 [Example 52, N-((6-amino-2,4-dimethylpyridin-3-yl)methyl)-4-(morpholinosulfonyl)-1H-pyrrole-2-carboxamide] | 5700 nM |
| Cc1nc(N)ccc1CNC(=O)c1cnn(Cc2ccccc2)c1 [Example 85, N-((6-amino-2-methylpyridin-3-yl)methyl)-1-benzyl-1H-pyrazole-4-carboxamide] | 4100 nM |
| Cc1cc(N)nc(C)c1CNC(=O)c1cnn(Cc2csc(CC(=O)N(C)C)n2)c1 [Example 29, N-((6-amino-2,4-dimethylpyridin-3-yl)methyl)-1-((2-(2-(dimethylamino)-2-oxoethyl)thiazol-4-yl)methyl]-1H-pyrazole-4-carboxamide] | 248 nM |
| Cc1cc(N)nc(C)c1CNC(=O)c1ncn(Cc2ccc3ccccc3c2)n1 [Example 64, N-((6-amino-2,4-dimethylpyridin-3-yl)methyl)-1-(naphthalen-2-ylmethyl)-1H-1,2,4-triazole-3-carboxamide] | 14 nM |
| Cc1cc(N)nc(C)c1CNC(=O)c1cnn(Cc2ccccc2Cl)c1 [Example 87, N-((6-amino-2,4-dimethylpyridin-3-yl)methyl)-1-(2-chlorobenzyl)-1H-pyrazole-4-carboxamide] | 1300 nM |
| Cc1cc(N)nc(C)c1CNC(=O)c1ncn(Cc2cccc(N3CCCC3)c2)n1 [Example 68, N-((6-amino-2,4-dimethylpyridin-3-yl)methyl)-1-(3-(pyrrolidin-1-yl)benzyl)-1H-1,2,4-triazole-3-carboxamide] | 34 nM |
| Cc1cc(N)nc(C)c1CNC(=O)c1cn(Cc2ccc(Oc3ccccc3)cc2)nn1 [Example 38, N-((6-amino-2,4-dimethylpyridin-3-yl)methyl)-1-(4-phenoxybenzyl)-1H-1,2,3-triazole-4-carboxamide] | 19 nM |
| Cc1cc(N)nc(C)c1CNC(=O)c1cnn(Cc2ccc(C(=O)N3CCOCC3)cc2)c1 [Example 121, N-((6-amino-2,4-dimethylpyridin-3-yl)methyl)-1-(4-(morpholine-4-carbonyl)benzyl)-1H-pyrazole-4-carboxamide] | 369 nM |
| Cc1cc(N)nc(C)c1CNC(=O)c1cnn(Cc2ccc(Cl)cc2)c1 [Example 96, N-((6-amino-2,4-dimethylpyridin-3-yl)methyl)-1-(4-chlorobenzyl)-1H-pyrazole-4-carboxamide] | 291 nM |
| Cc1cc(N)nc(C)c1CNC(=O)c1ccn(S(=O)(=O)c2ccc(Cl)s2)c1 [Example 128, N-((6-amino-2,4-dimethylpyridin-3-yl)methyl)-1-(5-chlorothiophen-2-ylsulfonyl)-1H-pyrrole-3-carboxamide] | 301 nM |
| Cc1cc(N)nc(C)c1CNC(=O)c1cn(Cc2ccc(-n3cccn3)cc2)cn1 [Example 24, 1-(4-(1H-pyrazol-1-yl)benzyl)-N-((6-amino-2,4-dimethylpyridin-3-yl)methyl)-1H-imidazole-4-carboxamide] | 238 nM |
| COCCc1cccc(Cn2cc(C(=O)NCc3c(C)cc(N)nc3C)cn2)c1 [Example 71, N-((6-amino-2,4-dimethylpyridin-3-yl)methyl)-1-(3-(2-methoxyethyl)benzyl)-1H-pyrazole-4-carboxamide] | 190 nM |
| Cc1cc(N)nc(C)c1CNC(=O)c1cnn(Cc2ccc3c(c2)CCS3(=O)=O)c1 [Example 174, N-((6-amino-2,4-dimethylpyridin-3-yl)methyl)-1-((1,1-dioxido-2,3-dihydrobenzo[b]thiophen-5-yl)methyl)-1H-pyrazole-4-carboxamide] | 75 nM |
| Cc1cc(N)nc(C)c1CNC(=O)c1cn(Cc2ncccn2)nn1 [Example 178, N-((6-Amino-2,4-dimethylpyridin-3-yl)methyl)-1-(pyrimidin-2-ylmethyl)-1H-1,2,3-triazole-4-carboxamide] | 67300 nM |
| Cc1cc(N)nc(C)c1CNC(=O)c1cnn(Cc2ccncc2)c1 [Example 18, N-((6-amino-2,4-dimethylpyridin-3-yl)methyl)-1-(pyridin-4-ylmethyl)-1H-pyrazole-4-carboxamide] | 1100 nM |
